According to US7045528B2, “Benzofused heterozryl amide derivatives of thienopyridines useful as therapeutic agents, pharmaceutical compositions including the same, and methods for their use” (Agouron Pharmaceuticals, Inc., priority 2002, dated 2006):

Tests used:
[1] = test system: Huvec; test: bFGF Huvec proliferation; type: cell-based, human; details: Homo sapiens, HUVEC
[2] = test system: human umbilical vein endothelial cells (HUVEC); test: HUVEC+VEGF proliferation assay; type: cell-based; details: Homo sapiens, HUVEC; VEGF 6 ng/mL, 72 h, MTT
Procedure: HUVEC+VEGF Proliferation Assay
This assay determines the ability of a test compound to inhibit the growth factor-stimulated proliferation of human umbilical vein endothelial cells (“HUVEC”). HUVEC cells (passage 3–4; Clonetics, Corp.) were thawed into EGM2 culture medium (Clonetics Corp) in T75 flasks. Fresh EGM2 medium was added to the flasks 24 hours later. Four or five days later, cells were exposed to another culture medium (F12K medium supplemented with 10% fetal bovine serum (FBS), 60 μg/mL endothelial cell growth supplement (ECGS), and 0.1 mg/mL heparin). Exponentially-growing HUVEC cells were used in experiments thereafter. Ten to twelve thousand HUVEC cells were plated in 96-well dishes in 100 μl of rich, culture medium (described above). The cells were allowed to attach for 24 hours in this medium. The medium was then removed by aspiration and 105 μl of starvation media (F12K+1% FBS) was added to each well. After 24 hours, 15 μl of test agent dissolved in 1% DMSO in starvation medium or this vehicle alone was added into each treatment well; the final DMSO concentration was 0.1%. One hour later, 30 μl of VEGF (30 ng/mL) in starvation media was added to all wells except those containing untreated controls; the final VEGF concentration was 6 ng/mL. Cellular proliferation was quantified 72 hours later by MTT dye reduction, at which time cells were exposed for 4 hours MTT (Promega Corp.). Dye reduction was stopped by addition of a stop solution (Promega Corp.) and absorbance at 595 nm was determined on a 96-well spectrophotometer plate reader.

[3] = molecular target: T1, unphosphorylated VEGF-R2Δ50 (FLVK) (Homo sapiens, UniProt P35968, DEL940-989/E990V); test: VEGF-R2 coupled spectrophotometric assay, unphosphorylated VEGF-R2Δ50 (FLVK); type: biochemical; details: unphosphorylated VEGF-R2Δ50; for inhibition at 0.05 µM: 50 nM compound, read-out: FLVK (% inh @ 50 nM)
T1 construct: VEGF-R2Δ50 contains residues 806–939 and 990–1171; made in house; host or cells: baculovirus/insect cell system
T1 sequence (P35968 with tags, fused parts or gaps DEL940-989/E990V limits assumed): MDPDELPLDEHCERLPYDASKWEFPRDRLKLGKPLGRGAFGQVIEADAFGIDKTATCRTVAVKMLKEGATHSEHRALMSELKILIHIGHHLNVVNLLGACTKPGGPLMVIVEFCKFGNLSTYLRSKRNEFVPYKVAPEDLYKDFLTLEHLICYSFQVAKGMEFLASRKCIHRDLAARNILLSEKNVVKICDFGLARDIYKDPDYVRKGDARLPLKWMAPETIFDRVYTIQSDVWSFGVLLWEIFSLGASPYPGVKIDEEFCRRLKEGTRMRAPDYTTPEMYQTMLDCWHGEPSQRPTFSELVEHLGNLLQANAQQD
Method in brief: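 Baculovirus-expressed human VEGF-R2Δ50 (kinase insert partly deleted, E990V), unphosphorylated form; ADP production coupled via PK/LDH to NADH oxidation, read at 340 nm. 20 mM poly(E4Y1), 3 mM ATP, 60 mM MgCl2, 2 mM MnCl2, 200 mM HEPES pH 7.5; 5–40 nM enzyme. Ki from Morrison tight-binding fit.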

[4] = molecular target: T2, PDGFRβ (Homo sapiens, UniProt P09619); test: PAE-PDGFRβ phosphorylation in PAE-PDGFRB cells assay; type: cell-based; details: PAE cells overexpressing human PDGFRβ, PDGF-BB stimulated; read-out: PAE PDGFR autophos IC50 (nM) AVG
T2 construct: expressed in transfected cells; host or cells: porcine aorta endothelial (PAE)-PDGFRβ cells
T2 sequence (P09619 33-1106): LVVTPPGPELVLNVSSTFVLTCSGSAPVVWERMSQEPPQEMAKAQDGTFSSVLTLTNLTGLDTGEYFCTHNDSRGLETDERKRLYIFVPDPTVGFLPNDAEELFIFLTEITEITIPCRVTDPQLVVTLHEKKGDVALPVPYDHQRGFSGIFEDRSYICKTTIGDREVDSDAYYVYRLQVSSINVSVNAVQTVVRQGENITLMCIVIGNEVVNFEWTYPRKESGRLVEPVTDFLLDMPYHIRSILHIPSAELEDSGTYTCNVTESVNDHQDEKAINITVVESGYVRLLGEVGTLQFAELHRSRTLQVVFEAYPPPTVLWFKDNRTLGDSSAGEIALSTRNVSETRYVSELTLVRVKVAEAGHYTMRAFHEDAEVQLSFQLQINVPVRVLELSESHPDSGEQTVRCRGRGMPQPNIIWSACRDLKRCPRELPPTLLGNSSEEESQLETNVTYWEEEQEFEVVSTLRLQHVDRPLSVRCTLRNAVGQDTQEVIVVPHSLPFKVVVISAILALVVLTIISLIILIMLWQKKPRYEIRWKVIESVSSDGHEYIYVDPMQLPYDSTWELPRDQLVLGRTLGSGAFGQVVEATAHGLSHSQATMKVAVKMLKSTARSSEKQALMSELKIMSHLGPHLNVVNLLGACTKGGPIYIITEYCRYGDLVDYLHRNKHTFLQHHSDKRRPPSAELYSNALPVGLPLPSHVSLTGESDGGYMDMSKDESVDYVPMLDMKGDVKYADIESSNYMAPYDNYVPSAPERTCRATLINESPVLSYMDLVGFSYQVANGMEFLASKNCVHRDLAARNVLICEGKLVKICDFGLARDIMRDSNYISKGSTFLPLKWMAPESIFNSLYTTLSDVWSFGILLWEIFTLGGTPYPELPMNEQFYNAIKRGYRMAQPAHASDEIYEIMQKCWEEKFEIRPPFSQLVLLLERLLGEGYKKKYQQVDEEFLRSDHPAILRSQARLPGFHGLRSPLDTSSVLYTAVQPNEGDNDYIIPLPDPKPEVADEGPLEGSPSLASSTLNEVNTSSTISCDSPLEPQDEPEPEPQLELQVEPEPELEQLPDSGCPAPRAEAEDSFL
Method in brief: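 PAE cells overexpressing human PDGFRβ, serum-starved 16 h (0.1% FBS), were given compound for 1 h at 37 °C (0.5% DMSO) and then stimulated with 1 μg/mL PDGF-BB plus 2 mM Na3VO4 for 8 min. Receptor autophosphorylation was read by capture ELISA (HRP-PY20, TMB, 450 nm); IC50 from 4-parameter fit.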

Structure (SMILES) | inhibition at 0.05 µM [3] [%] | Ki [3] [nM] | IC50 [4] [nM] | IC50 [1] [nM] | IC50 [2] [nM]
CNC(=O)c1c(C)n(C)c2cc(Oc3ccnc4cc(-c5nc(CO)cs5)sc34)ccc12 [Example 26, 1,2-Dimethyl-6-(2-[4-(hydroxymethyl)thiazol-2-yl]thieno[3,2-b]pyridin-7-yloxy)-1H-indole-3-carboxylic acid methylamide] | 83 | 3.66 | 13 | 2230 | 0.74
CCc1sc2cc(Oc3ccnc4cc(C(=O)N5CCC[C@H]5COC)sc34)ccc2c1C(=O)NC [Example 137, 2-Ethyl-6-[(2-{[(2S)-2-(methoxymethyl)pyrrolidin-1-yl]carbonyl}thieno[3,2-b]pyridin-7-yl)oxy]benzo[b]thiophene-3-carboxylic acid methylamide] | 64 | 5.1 | 213 | 294 | 2.1
CNC(=O)c1c(C)n(C)c2cc(Oc3ccnc4cc(C(=O)N(C)C)sc34)ccc12 [Example 33, 7-({1,2-Dimethyl-3-[(methylamino)carbonyl]-1H-indol-6-yl}oxy)-N,N-dimethylthieno[3,2-b]pyridine-2-carboxamide] | 61 | 11.5 | 63 | 10000 | 10
CCc1oc2cc(Oc3ccnc4cc(-c5nccn5C)sc34)ccc2c1C(=O)NC [Example 94, 2-Ethyl-6[2-(1-methyl-1H-imidazol-2-yl)-thieno[3,2-b]pyridin-7-yloxy]-benzofuran-3-carboxylic acid methylamide] | 81 | 1.45 | 112 | 251 | 0.7
CNC(=O)c1c(C)n(C)c2cc(Oc3ccnc4cc(-c5ccncc5)sc34)ccc12 [Example 38, 1,2-Dimethyl-6-(2-pyridin-4-yl-thieno[3,2-b]pyridin-7-yloxy)-1H-indole-3-carboxylic acid methylamide] | 60 | 6.12 | 12.3 | 10000 | 27
CO[C@@H]1CCN(C(=O)c2cc3nccc(Oc4ccc5c(C(=O)NCCCO)c(C)sc5c4)c3s2)C1 [Example 124, 6-[(2-{[(3R)-3-Methoxypyrrolidin-1-yl]carbonyl}thieno[3,2-b]pyridin-7-yl)oxy]-2-methylbenzo[b]thiophene-3-carboxylic acid 3-hydroxypropylamide] | 82 | 2.19 | 376 | 8240 | 1.6
CCCNC(=O)c1c(C)n(C)c2cc(Oc3ccnc4cc(C(=O)N5CCC[C@H]5CO)sc34)ccc12 [Example 58, 6-(2-[2-(S)Hydroxymethyl-pyrrolidine-1-carbonyl]thieno[3,2-b]pyridin-7-yloxy)-1,2-dimethyl-1H-indole-3-carboxylic acid propylamide] | 55 | 7.59 | 124 | 7830 | 3.65
Cc1c(C(=O)NCCCO)c2ccc(Oc3ccnc4cc(C(=O)N5CCC5)sc34)cc2n1C [Example 63, 6-[2-(Azetidine-1-carbonyl)-thieno[3,2-b]pyridin-7-yloxy}-1,2-dimethyl-1H-indole-3-carboxylic acid (3-hydroxy-propyl)-amide] | 67 | 9.33 | 84 | 10000 | 10
COC[C@@H]1CCCN1C(=O)c1cc2nccc(Oc3ccc4c(C(=O)NCC(C)C)c(C)oc4c3)c2s1 (stereo in doubt) [Example 85, 6[2-(2-Methoxymethyl-pyrrolidine-1-carbonyl)-thieno[3,2-b]pyridin-7-yloxy]-2-methyl-benzofuran-3-carboxylic acid isobutyl amide] | 83 | 1.71 | 27.3 | 6990 | 3.92
CNC(=O)c1c(C)n(C)c2cc(Oc3ccnc4cc(C(=O)N5CC(O)C5)sc34)ccc12 [Example 30, 6-[2-(3-Hydroxy-azetidine-1-carbonyl)-thieno[3,2-b]pyridin-7-yloxy]-1,2-dimethyl-1H-indole-3-carboxylic acid methylamide] | 63 | 6 | 74 | 10000 | 33.6

The next compounds have a lower Ki [3] than those just listed; values first:

inhibition at 0.05 µM [3] [%] | Ki [3] [nM] | IC50 [4] [nM] | Structure (SMILES) | IC50 [1] [nM] | IC50 [2] [nM]
87 | 1.2 | 21.3 | CNC(=O)c1c(C)n(C)c2cc(Oc3ccnc4cc(C(=O)N5CCC(CNC(=O)OC(C)(C)C)C5)sc34)ccc12 (stereo not shown) [Example 44, tert-Butyl (1-{[7-({1,2-dimethyl-3-[(methylamino)carbonyl]-1H-indol-6-yl}oxy)thieno[3,2-b]pyridin-2-yl]carbonyl}pyrrolidin-3-yl)methylcarbamate] | 6040 | 1.78
94 | 0.58 | 12.4 | Cc1oc2cc(Oc3ccnc4cc(-c5nccn5C)sc34)ccc2c1C(=O)NCC(C)C [Example 84, 2-Methyl-6-[2-(1-methyl-1H-imidazol-2-yl)-thieno[3,2-b]pyridin-7-yloxy]-benzofuran-3-carboxylic acid isobutyl amide] | 429 | 0.322
91 | 0.57 | 148 | CNC(=O)c1c(C)sc2cc(Oc3ccnc4cc(-c5nc(CO)cs5)sc34)ccc12 [Example 128] | 100 | 0.13
95 | 0.43 | 47.1 | Cc1c(C(=O)Nc2ccccn2)c2ccc(Oc3ccnc4cc(-c5nccs5)sc34)cc2n1C [Example 70, 1,2-Dimethyl-6-(2-thiazol-2-yl-thieno[3,2-b]pyridin-7-yloxy)-1H-indole-3-carboxylic acid pyridin-2-ylamide] | 3980 | 0.537
94 | 0.356 | 16.5 | CO[C@@H]1CCN(C(=O)c2cc3nccc(Oc4ccc5c(C(=O)NCC6CC6)c(C)oc5c4)c3s2)C1 [Example 91, 6-[2-(q-Methoxy-pyrrolidine-1-carbonyl)-thieno[3,2-b]pyridin-7-yloxy]-2-methyl-benzofuran-3-carboxylic acid cyclopropylmethyl-amide] | 250 | 0.168
90 | 0.276 | 15.5 | CNC(=O)c1c(C)oc2cc(Oc3ccnc4cc(C(=O)N5CCC[C@H]5COC)sc34)ccc12 [Example 79, 6-(2-[(S)-2-(methoxymethyl)pyrrolidine-1-carbonyl]thieno[3,2-b]pyridin-7-yloxy)-2-methyl-benzofuran-3-carboxylic acid methyl amide] | 130 | 0.223
100 | 0.2 | 4.4 | CCCNC(=O)c1c(C)oc2cc(Oc3ccnc4cc(C(=O)N5CC[C@@H](OC)C5)sc34)ccc12 [Example 92, 6-[2-(3-Methoxy-pyrrolidine-1-carbonyl)-thieno[3,2-b]pyridin-7-yloxy]-2-methyl-benzofuran-3-carboxylic acid propyl amide] | 13 | 0.18
